Measured values as given in patent US20180036289A1 (Gilead Sciences, Inc., priority 2016, published 2018).

Key:
Experiment in all cases: Cell proliferation assay (ATPlite), drug with vs without cobicistat
Format in all cases: cell-based
A-204 = A-204 cell line; 120 hours incubation
Description: (§1) All cell lines were obtained from the American Type Culture Collection (ATCC) Manassas, Va. (US). Master and working cell banks (MCB and WCB) were prepared by subculturing in ATCC-recommended media and freezing protocols (www.atcc.org). Cell line stocks for the assays were prepared from the WCB. The MCB, WCBs and assay stocks were prepared within respectively 3, 6 and 9 passages of the ATCC vial.
(§2) Solid powders of reference compounds were weighed on a calibrated balance and dissolved in 100% DMSO. DMSO samples were stored at room temperature. At the day of the experiment, the compound stock was diluted in 3.16 fold steps in 100% DMSO to obtain a 9-point dilution series. This was further diluted 31.6 times in 20 mM sterile Hepes buffer pH 7.4. A volume of 5 μl was transferred to the cells to generate a test concentration range from 3.16×10^−5M to 3.16×10^−9 M in duplicate. The final DMSO concentration during incubation was […] in all wells.
(§3) An assay stock was thawed and diluted in its ATCC recommended medium and dispensed in a 384-well plate, depending on the cell line used, at a concentration of 200-3200 cells per well in 45 μl medium. For each used cell line the optimal cell density is used. The margins of the plate were filled with phosphate-buffered saline. Plated cells were incubated in a humidified atmosphere of 5% CO2 at 37° C. After 24 hours, 5 μl of compound dilution was added and plates were further incubated for another 120 hours. After 120 hours, 25 μl of ATPlite 1Step™ (PerkinElmer) solution was added to each well, and subsequently shaken for 2 minutes. After 10 minutes of incubation in the dark, the luminescence was recorded on an Envision multimode reader (PerkinElmer).
(§4) IC50s were calculated by non-linear regression using IDBS XLfit 5. The percentage growth after 120 h (%-growth) was calculated as follows: 100%×(luminescencet=120h/luminescenceuntreated,t=120h). This was fitted to the ^10log compound concentration (conc) by a 4-parameter logistics curve: %−growth=bottom+(top−bottom)/(1+10^(log IC50-conc)*hill)), where hill is the Hill-coefficient, and bottom and top the asymptotic minimum and maximum cell growth that the compound allows in that assay.

A-427 = A-427 cell line; 120 hours incubation
Description: as §1, §2, §3, §4

A-498 = A-498 cell line; 120 hours incubation
Description: as §1, §2, §3, §4

A-549 = A-549 cell line; 120 hours incubation
Description: as §1, §2, §3, §4

A-704 = A-704 cell line; 120 hours incubation
Description: as §1, §2, §3, §4

AN3 CA = AN3 CA cell line; 120 hours incubation
Description: as §1, §2, §3, §4

AU-565 = AU-565 cell line; 120 hours incubation
Description: as §1, §2, §3, §4

AsPC-1 = AsPC-1 cell line; 120 hours incubation
Description: as §1, §2, §3, §4

BT-549 = BT-549 cell line; 120 hours incubation
Description: as §1, §2, §3, §4

C-33 A = C-33 A cell line; 120 hours incubation
Description: as §1, §2, §3, §4

CAL 27 = CAL 27 cell line; 120 hours incubation
Description: as §1, §2, §3, §4

CCRF-CEM = CCRF-CEM cell line; 120 hours incubation
Description: as §1, §2, §3, §4

DLD-1 = DLD-1 cell line; 120 hours incubation
Description: as §1, §2, §3, §4

Hs 578T = Hs 578T cell line; 120 hours incubation
Description: as §1, §2, §3, §4

K-562 = K-562 cell line; 120 hours incubation
Description: as §1, §2, §3, §4

KU812 = KU812 cell line; 120 hours incubation
Description: as §1, §2, §3, §4

LNCaP FGC = LNCaP FGC cell line; 120 hours incubation
Description: as §1, §2, §3, §4

LoVo = LoVo cell line; 120 hours incubation
Description: as §1, §2, §3, §4

MIA PaCa-2 = MIA PaCa-2 cell line; 120 hours incubation
Description: as §1, §2, §3, §4

MeWo = MeWo cell line; 120 hours incubation
Description: as §1, §2, §3, §4

NCI-H82 = NCI-H82 cell line; 120 hours incubation
Description: as §1, §2, §3, §4

OVCAR-3 = OVCAR-3 cell line; 120 hours incubation
Description: as §1, §2, §3, §4

PA-1 = PA-1 cell line; 120 hours incubation
Description: as §1, §2, §3, §4

RPMI-7951 = RPMI-7951 cell line; 120 hours incubation
Description: as §1, §2, §3, §4

RT4 = RT4 cell line; 120 hours incubation
Description: as §1, §2, §3, §4

SHP-77 = SHP-77 cell line; 120 hours incubation
Description: as §1, §2, §3, §4

SK-N-FI = SK-N-FI cell line; 120 hours incubation
Description: as §1, §2, §3, §4

T98G = T98G cell line; 120 hours incubation
Description: as §1, §2, §3, §4

U-2 OS = U-2 OS cell line; 120 hours incubation
Description: as §1, §2, §3, §4

U-87 MG = U-87 MG cell line; 120 hours incubation
Description: as §1, §2, §3, §4

Compound | Fold change in IC50 (IC50 [Drug + Cobicistat]/IC50 [Drug]) (A-204) | Fold change in IC50 (IC50 [Drug + Cobicistat]/IC50 [Drug]) (A-427) | Fold change in IC50 (IC50 [Drug + Cobicistat]/IC50 [Drug]) (A-498) | Fold change in IC50 (IC50 [Drug + Cobicistat]/IC50 [Drug]) (A-549) | Fold change in IC50 (IC50 [Drug + Cobicistat]/IC50 [Drug]) (A-704) | Fold change in IC50 (IC50 [Drug + Cobicistat]/IC50 [Drug]) (AN3 CA) | Fold change in IC50 (IC50 [Drug + Cobicistat]/IC50 [Drug]) (AU-565) | Fold change in IC50 (IC50 [Drug + Cobicistat]/IC50 [Drug]) (AsPC-1) | Fold change in IC50 (IC50 [Drug + Cobicistat]/IC50 [Drug]) (BT-549) | Fold change in IC50 (IC50 [Drug + Cobicistat]/IC50 [Drug]) (C-33 A) | Fold change in IC50 (IC50 [Drug + Cobicistat]/IC50 [Drug]) (CAL 27) | Fold change in IC50 (IC50 [Drug + Cobicistat]/IC50 [Drug]) (CCRF-CEM) | Fold change in IC50 (IC50 [Drug + Cobicistat]/IC50 [Drug]) (DLD-1) | Fold change in IC50 (IC50 [Drug + Cobicistat]/IC50 [Drug]) (Hs 578T) | Fold change in IC50 (IC50 [Drug + Cobicistat]/IC50 [Drug]) (K-562) | Fold change in IC50 (IC50 [Drug + Cobicistat]/IC50 [Drug]) (KU812) | Fold change in IC50 (IC50 [Drug + Cobicistat]/IC50 [Drug]) (LNCaP FGC) | Fold change in IC50 (IC50 [Drug + Cobicistat]/IC50 [Drug]) (LoVo) | Fold change in IC50 (IC50 [Drug + Cobicistat]/IC50 [Drug]) (MIA PaCa-2) | Fold change in IC50 (IC50 [Drug + Cobicistat]/IC50 [Drug]) (MeWo) | also measured
Cc1nc(Nc2ncc(C(=O)Nc3c(C)cccc3Cl)s2)cc(N2CCN(CCO)CC2)n1 [dasatinib] | 2.2 fold | 5.8 fold | 1.4 fold | 1.0 fold | 1.0 fold | 1.2 fold | 8.4 fold | 1.2 fold | 1.5 fold | 1.2 fold | 1.3 fold | 1.3 fold | 1.4 fold | 2.5 fold | 1.1 fold | 1.5 fold | 1.3 fold | 1.0 fold | 2.2 fold | 1.0 fold | Fold change in IC50 (IC50 [Drug + Cobicistat]/IC50 [Drug]) (NCI-H82): 1.1 fold; Fold change in IC50 (IC50 [Drug + Cobicistat]/IC50 [Drug]) (OVCAR-3): 1.6 fold; Fold change in IC50 (IC50 [Drug + Cobicistat]/IC50 [Drug]) (PA-1): 2.6 fold; Fold change in IC50 (IC50 [Drug + Cobicistat]/IC50 [Drug]) (RPMI-7951): 3.0 fold; Fold change in IC50 (IC50 [Drug + Cobicistat]/IC50 [Drug]) (RT4): 2.5 fold; Fold change in IC50 (IC50 [Drug + Cobicistat]/IC50 [Drug]) (SHP-77): 1.4 fold; Fold change in IC50 (IC50 [Drug + Cobicistat]/IC50 [Drug]) (SK-N-FI): 2.0 fold; Fold change in IC50 (IC50 [Drug + Cobicistat]/IC50 [Drug]) (T98G): 2.3 fold; Fold change in IC50 (IC50 [Drug + Cobicistat]/IC50 [Drug]) (U-2 OS): 4.0 fold; Fold change in IC50 (IC50 [Drug + Cobicistat]/IC50 [Drug]) (U-87 MG): 1.1 fold
CC(=O)O[C@H]1C(=O)[C@@]2(C)[C@H]([C@H](OC(=O)c3ccccc3)[C@]3(O)C[C@H](OC(=O)[C@H](O)[C@@H](NC(=O)c4ccccc4)c4ccccc4)C(C)=C1C3(C)C)[C@]1(OC(C)=O)CO[C@@H]1C[C@@H]2O [paclitaxel] | 3.6 fold | 1.2 fold | 2.8 fold | 1.0 fold | 1.5 fold | 2.9 fold | 2.7 fold | 2.2 fold | 1.2 fold | 1.3 fold | 2.0 fold | 2.6 fold | 1.9 fold | 2.6 fold | 2.4 fold | 4.6 fold | 2.5 fold | 1.3 fold | 3.0 fold | 2.0 fold | Fold change in IC50 (IC50 [Drug + Cobicistat]/IC50 [Drug]) (NCI-H82): 2.4 fold; Fold change in IC50 (IC50 [Drug + Cobicistat]/IC50 [Drug]) (OVCAR-3): 1.7 fold; Fold change in IC50 (IC50 [Drug + Cobicistat]/IC50 [Drug]) (PA-1): 3.9 fold; Fold change in IC50 (IC50 [Drug + Cobicistat]/IC50 [Drug]) (RPMI-7951): 2.9 fold; Fold change in IC50 (IC50 [Drug + Cobicistat]/IC50 [Drug]) (RT4): 3.7 fold; Fold change in IC50 (IC50 [Drug + Cobicistat]/IC50 [Drug]) (SHP-77): 2.3 fold; Fold change in IC50 (IC50 [Drug + Cobicistat]/IC50 [Drug]) (SK-N-FI): 2.5 fold; Fold change in IC50 (IC50 [Drug + Cobicistat]/IC50 [Drug]) (T98G): 5.2 fold; Fold change in IC50 (IC50 [Drug + Cobicistat]/IC50 [Drug]) (U-2 OS): 3.2 fold; Fold change in IC50 (IC50 [Drug + Cobicistat]/IC50 [Drug]) (U-87 MG): 2.2 fold
